In PubChem BioAssay AID1963856 (Molecular Pharmacology Branch, DTP, NCI, 2024):

Test system: LG0567-F671-PDC KRAS tumor spheroid viability
Experiment: Anticancer human tumor LG0567-F671-PDC patient-derived lung adenocarcinoma cell line growth inhibition [KRAS2]
Conditions: spheroids with HUVEC and MSC; for IC50: curve of first compound; for viability, T/C: stronger effect = lower value; active means viability on the fitted dose curve at most 10% of control; inactive means the rest
Source text: Multicellular complex tumor spheroid response to RAS pathway inhibitors in combination with a targeted agents in patient-derived cell lines with oncogenic KRAS variants from multiple cancer types
A high-throughput screen of multi-cell type tumor spheroids was designed to identify active combinations of targeted small molecules and KRAS pathway inhibitors. Complex spheroids include a stromal component modeled by human endothelial cells (HUVEC) and fibroblasts modeled by human mesenchymal stem cells (MSCs). The concentration ranges selected for each drug and investigational agent were based upon clinically achievable concentrations if the clinical Cmax of the agent was known.
Compounds. The drugs and investigational agents: BI-3406 (NSC825286), BAY-293 (NSC824723), batoprotafib (TNO155; NSC825523), sotorasib (AMG 510; NSC818433), MRTX1257 (NSC819558), elimusertib (BAY 1895344; NSC800525), molibresib (GSK525762; NSC774829), temuterkib (LY3214996; NSC803410), venetoclax (NSC766270), alisertib (NSC759677), olaparib (NSC753686), talazoparib (NSC767125), erdafitinib (NSC781556), ipatasertib (NSC767898), cabozantinib (NSC761068), nintedanib (NSC756659), abemaciclib (NSC768073), docetaxel (NSC628503), trametinib (NSC758246), and sapanisertib (NSC764658) were obtained from the National Cancer Institute (NCI) Developmental Therapeutics Program Chemical Repository. The FDA-approved anticancer drug set is available from the Developmental Therapeutics Program. […] The stock solutions were prepared in dimethyl sulfoxide (DMSO, Sigma-Aldrich, St. Louis, MO, cat. D2650) at 800-fold the tested concentration and stored at -70 degrees C prior to their use. All drugs and investigational agents were tested over a range starting from a high concentration at or near the clinical Cmax and decreasing in half-log increments. If the clinical Cmax for an agent had not been determined, the highest concentration tested was 10 microM.
Cell Culture. All cells were maintained in an incubator at 37 degrees C and 5% CO2 with 95% humidity. The PDC lines were cultured according to standard operating procedures established by the NCI PDMR (https://pdmr.cancer.gov/sops/default.htm). Briefly, all PDCs were thawed and cultured in Matrigel-coated flasks prepared with a working solution of 1X Ham's F-12 nutrient mix, without supplementation (Invitrogen, Waltham, MA, cat. 11765054), 100 U/mL penicillin-streptomycin (Invitrogen, cat. 15140122), and 2.5% Matrigel (Corning Inc., Corning, NY, cat. 354248) for the first three passages. All PDCs were cultured in complete DMEM/F-12 media containing advanced DMEM/F-12 (Invitrogen, cat. 12634028), 4.9% defined fetal bovine serum, heat inactivated (HyClone Laboratories Inc., Logan, UT, cat. SH30070.03HI), 389 ng/mL hydrocortisone (Sigma-Aldrich, cat. H4001), 9.7 ng/mL human EGF recombinant protein (Invitrogen, cat. PHG0313), 23.4 microg/mL adenine (Sigma-Aldrich, cat. A2786), 97.3 U/mL penicillin-streptomycin (Invitrogen, cat. 15140122), 1.9 mM L-glutamine (Invitrogen, cat. 25030081), and 9.7 microM Y-27632 dihydrochloride (Tocris Bioscience, Bristol, United Kingdom, cat. 1254). The PDCs were cultured in complete DMEM/F12 media without 9.7 microM Y-27632 dihydrochloride for at least two passages prior to the screen. The established cell line HOP-62 was cultured in RPMI 1640 medium, HEPES (Invitrogen, cat. 22400105) with 10% defined fetal bovine serum (HyClone Laboratories Inc., cat. SH30070.03) and 2 mM L-glutamine (Invitrogen, cat. 25030081). The pooled donor HUVEC were cultured in endothelial cell growth medium 2 (PromoCell, Heidelberg, Germany, cat. C-22011) and the hMSC were cultured in mesenchymal stem cell growth medium 2 (PromoCell, cat. C-28009). For all experiments, HUVEC and hMSC were used at passages </=5, while the malignant cell lines were used at passages </=15. […]
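Further: drug exposure lasted seven days after spheroids formed for three days.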

CN(C)C/C=C/C(=O)Nc1cc2c(Nc3ccc(F)c(Cl)c3)ncnc2cc1O[C@H]1CCOC1 + C=CC(=O)N1CCN(c2nc(=O)n(-c3c(C)ccnc3C(C)C)c3nc(-c4c(O)cccc4F)c(F)cc23)C(C)C1
inactive: viability, T/C (second compound 0.1 µM, first compound 0.000316 µM) 32.6% | viability, T/C (second compound 0.1 µM, first compound 0.001 µM) 26.2% | viability, T/C (second compound 0.1 µM, first compound 0.00316 µM) 23.1% | viability, T/C (second compound 0.1 µM, first compound 0.01 µM) 18.4% | viability, T/C (second compound 0.1 µM, first compound 0.0316 µM) 15.4% | viability, T/C (second compound 0.1 µM, first compound 0.1 µM) 26.1% | viability, T/C (second compound 0.316 µM, first compound 0.000316 µM) 28.6% | viability, T/C (second compound 0.316 µM, first compound 0.001 µM) 28.2% | viability, T/C (second compound 0.316 µM, first compound 0.00316 µM) 26.1% | viability, T/C (second compound 0.316 µM, first compound 0.01 µM) 21.6% | viability, T/C (second compound 0.316 µM, first compound 0.0316 µM) 24.1% | viability, T/C (second compound 0.316 µM, first compound 0.1 µM) 28.4% | viability, T/C (second compound 1 µM, first compound 0.000316 µM) 25.1% | viability, T/C (second compound 1 µM, first compound 0.001 µM) 24.7% | viability, T/C (second compound 1 µM, first compound 0.00316 µM) 24.5% | viability, T/C (second compound 1 µM, first compound 0.01 µM) 26.2% | viability, T/C (second compound 1 µM, first compound 0.0316 µM) 27.5% | viability, T/C (second compound 1 µM, first compound 0.1 µM) 24.4% | viability, T/C (second compound 3.16 µM, first compound 0.000316 µM) 18.6% | viability, T/C (second compound 3.16 µM, first compound 0.001 µM) 22.9% | viability, T/C (second compound 3.16 µM, first compound 0.00316 µM) 26.1% | viability, T/C (second compound 3.16 µM, first compound 0.01 µM) 14.5% | viability, T/C (second compound 3.16 µM, first compound 0.0316 µM) 21.8% | viability, T/C (second compound 3.16 µM, first compound 0.1 µM) 22.5% | viability, T/C (second compound 10 µM, first compound 0.000316 µM) 23% | viability, T/C (second compound 10 µM, first compound 0.001 µM) 22.9% | viability, T/C (second compound 10 µM, first compound 0.00316 µM) 15.8% | viability, T/C (second compound 10 µM, first compound 0.01 µM) 13.1% | viability, T/C (second compound 10 µM, first compound 0.0316 µM) 18.5% | viability, T/C (second compound 10 µM, first compound 0.1 µM) 13.3%
< 316 pM: IC50 (second compound 0.1 µM) | IC50 (second compound 0.316 µM) | IC50 (second compound 1 µM) | IC50 (second compound 3.16 µM) | IC50 (second compound 10 µM)
